Data taken from patent US12281095B2, “Pesticidally active diazine-amide compounds” (SYNGENTA CROP PROTECTION AG, priority 2019, dated 2025).

How the values were obtained:
Assay type in all cases: in vivo
[1] = tested on: Chilo suppressalis (Striped Rice Stemborer); assay: Example B4: Chilo suppressalis (Striped Rice Stemborer), artificial diet; settings: 144 h, application rate of 200 ppm, L2 larvae, 6 days after infestation, read-out: control in at least one of the three categories (mortality, anti-feedant or growth inhibition)
Protocol: Example B4: Chilo suppressalis (Striped Rice Stemborer)
24-well microtiter plates with artificial diet were treated with aqueous test solutions prepared from 10′000 ppm DMSO stock solutions by pipetting. After drying, the plates were infested with L2 larvae (6-8 per well). The samples were assessed for mortality, anti-feeding effect, and growth inhibition in comparison to untreated samples 6 days after infestation. Control of Chilo suppressalis by a test sample is given when at least one of the categories mortality, anti-feedant effect, and growth inhibition is higher than the untreated sample.

[2] = tested on: Plutella xylostella (Diamondback Moth); assay: Example B13: Plutella xylostella (Diamondback Moth), artificial diet, 96-well; settings: 216 h, application rate of 500 ppm, eggs/L1 larvae, 9 days after infestation
Protocol: Example B13: Plutella xylostella (Diamondback Moth)
96-well microtiter plates containing artificial diet were treated with aqueous test solutions, prepared from 10′000 ppm DMSO stock solutions, by a liquid handling robot. After drying, eggs (˜30 per well) were infested onto a netted lid which was suspended above the diet. The eggs hatch and L1 larvae move down to the diet. The samples were assessed for mortality 9 days after infestation.

[3] = tested on: Diabrotica balteata (Corn Root Worm); assay: Example B1: Diabrotica balteata (Corn Root Worm), sprayed maize sprouts; settings: 96 h, application rate of 200 ppm, L2 larvae, 4 days after infestation, read-out: control in at least one of the two categories (mortality or growth inhibition)
Protocol: Example B1: Diabrotica balteata (Corn Root Worm)
Maize sprouts placed onto an agar layer in 24-well microtiter plates were treated with aqueous test solutions prepared from 10′000 ppm DMSO stock solutions by spraying. After drying, the plates were infested with L2 larvae (6 to 10 per well). The samples were assessed for mortality and growth inhibition in comparison to untreated samples 4 days after infestation.

[4] = tested on: Plutella xylostella (Diamond Back Moth); assay: Example B5: Plutella xylostella (Diamond Back Moth), artificial diet, 24-well; settings: 192 h, application rate of 200 ppm, eggs, 8 days after infestation, read-out: control in at least one of the two categories (mortality or growth inhibition)
Protocol: Example B5: Plutella xylostella (Diamond Back Moth)
24-well microtiter plates with artificial diet were treated with aqueous test solutions prepared from 10′000 ppm DMSO stock solutions by pipetting. After drying, Plutella eggs were pipetted through a plastic stencil onto a gel blotting paper and the plate was closed with it. The samples were assessed for mortality and growth inhibition in comparison to untreated samples 8 days after infestation.

[5] = tested on: Spodoptera littoralis (Egyptian Cotton Leaf Worm); assay: Example B9: Spodoptera littoralis (Egyptian Cotton Leaf Worm), sprayed cotton leaf discs; settings: foliar, 72 h, application rate of 200 ppm, L1 larvae, 3 days after infestation, read-out: control in at least one of the three categories (mortality, anti-feedant or growth inhibition)

CC(NC(=O)c1cc(C2CC2C(F)(F)F)cc(C(F)(F)F)c1)c1nccnc1-c1ncc(OCC(F)F)cn1 (centres unmarked) [P38, N-[1-[3-[5-(2,2-difluoroethoxy)pyrimidin-2-yl]pyrazin-2-yl]ethyl]-3-(trifluoromethyl)-5-[2-(trifluoromethyl)cyclopropyl]benza-mide]
≥ 80%: percent control (mortality, anti-feedant effect or growth inhibition) at 200 ppm [1] | mortality at 500 ppm [2] | percent control (mortality or growth inhibition) at 200 ppm [3] | percent control (mortality or growth inhibition) at 200 ppm [4] | percent control (mortality, anti-feedant effect or growth inhibition) at 200 ppm [5]

CC(NC(=O)c1cc(C(F)(F)F)cc(C2(C#N)CC2)c1)c1nccnc1-c1ccc(OCC(F)F)cn1 (centres unmarked) [P33, 3-(1-cyanocyclopropyl)-N-[1-[3-[5-(2,2-difluoroethoxy)-2-pyridyl]pyrazin-2-yl]ethyl]-5-(trifluoromethyl)benzamide]
≥ 80%: percent control (mortality, anti-feedant effect or growth inhibition) at 200 ppm [1] | mortality at 500 ppm [2] | percent control (mortality or growth inhibition) at 200 ppm [3] | percent control (mortality or growth inhibition) at 200 ppm [4] | percent control (mortality, anti-feedant effect or growth inhibition) at 200 ppm [5]

CC(NC(=O)c1cc(C2CC2)cc(C(F)(F)F)c1)c1nccnc1-c1ccc(OC(F)F)cn1 (centres unmarked) [P7, 3-cyclopropyl-N-[1-[3-[5-(difluoromethoxy)-2-pyridyl]pyrazin-2-yl]ethyl]-5-(trifluoromethyl)benzamide]
≥ 80%: percent control (mortality, anti-feedant effect or growth inhibition) at 200 ppm [1] | percent control (mortality or growth inhibition) at 200 ppm [3] | percent control (mortality or growth inhibition) at 200 ppm [4] | percent control (mortality, anti-feedant effect or growth inhibition) at 200 ppm [5]

CC(NC(=O)c1cc(C(F)(F)F)cc(C(F)(F)C2CC2)c1)c1nccnc1-c1ccc(OCC(F)(F)F)cn1 (centres unmarked) [P31, 3-[cyclopropyl(difluoro)methyl]-N-[1-[3-[5-(2,2,2-trifluoroethoxy)-2-pyridyl]pyrazin-2-yl]ethyl]-5-(trifluoromethyl)benzamide]
≥ 80%: mortality at 500 ppm [2]

CC(NC(=O)c1cc(C2CC2)cc(C(F)(F)F)c1)c1nccnc1-c1ccc(OCC(F)(F)F)cn1 (centres unmarked) [P27, 3-cyclopropyl-N-[1-[3-[5-(2,2,2-trifluoroethoxy)-2-pyridyl]pyrazin-2-yl]ethyl]-5-(trifluoromethyl)benzamide]
≥ 80%: percent control (mortality, anti-feedant effect or growth inhibition) at 200 ppm [1] | mortality at 500 ppm [2] | percent control (mortality or growth inhibition) at 200 ppm [3] | percent control (mortality or growth inhibition) at 200 ppm [4]

CC(NC(=O)c1cc(C(F)(F)F)cc(S(=O)(=O)C(F)(F)F)c1)c1nccnc1-c1ccc(OCC(F)F)cn1 (centres unmarked) [P20, N-[1-[3-[5-(2,2-difluoroethoxy)-2-pyridyl]pyrazin-2-yl]ethyl]-3-(trifluoromethyl)-5-(trifluoromethylsulfonyl)benzamide]
≥ 80%: percent control (mortality, anti-feedant effect or growth inhibition) at 200 ppm [1] | mortality at 500 ppm [2]

CC(NC(=O)c1cc(C(F)(F)F)cc(S(=O)(=O)C(F)(F)F)c1)c1nccnc1-c1ncc(OC(F)F)cn1 (centres unmarked) [P19, N-[1-[3-[5-(difluoromethoxy)pyrimidin-2-yl]pyrazin-2-yl]ethyl]-3-(trifluoromethyl)-5-(trifluoromethylsulfonyl)benzamide]
≥ 80%: percent control (mortality, anti-feedant effect or growth inhibition) at 200 ppm [1] | mortality at 500 ppm [2] | percent control (mortality or growth inhibition) at 200 ppm [3] | percent control (mortality or growth inhibition) at 200 ppm [4] | percent control (mortality, anti-feedant effect or growth inhibition) at 200 ppm [5]

CC(NC(=O)c1cc(C(F)(F)F)cc(C2(C#N)CC2)c1)c1nccnc1-c1ccc(OCC(F)(F)F)cn1 (centres unmarked) [P24, 3-(1-cyanocyclopropyl)-N-[1-[3-[5-(2,2,2-trifluoroethoxy)-2-pyridyl]pyrazin-2-yl]ethyl]-5-(trifluoromethyl)benzamide]
≥ 80%: percent control (mortality, anti-feedant effect or growth inhibition) at 200 ppm [1] | mortality at 500 ppm [2] | percent control (mortality or growth inhibition) at 200 ppm [3] | percent control (mortality or growth inhibition) at 200 ppm [4] | percent control (mortality, anti-feedant effect or growth inhibition) at 200 ppm [5]

CC(NC(=O)c1cc(C2CC2)cc(C(F)(F)F)c1)c1nccnc1-c1ncc(OC(F)F)cn1 (centres unmarked) [P41, 3-cyclopropyl-N-[1-[3-[5-(difluoromethoxy)pyrimidin-2-yl]pyrazin-2-yl]ethyl]-5-(trifluoromethyl)benzamide]
≥ 80%: percent control (mortality, anti-feedant effect or growth inhibition) at 200 ppm [1] | mortality at 500 ppm [2] | percent control (mortality or growth inhibition) at 200 ppm [3] | percent control (mortality or growth inhibition) at 200 ppm [4] | percent control (mortality, anti-feedant effect or growth inhibition) at 200 ppm [5]

CC(NC(=O)c1cc(C(F)(F)F)cc(C(C)(C)C#N)c1)c1nccnc1-c1ccc(OC(F)F)cn1 (centres unmarked) [P13, 3-(1-cyano-1-methyl-ethyl)-N-[1-[3-[5-(difluoromethoxy)-2-pyridyl]pyrazin-2-yl]ethyl]-5-(trifluoromethyl)benzamide]
≥ 80%: percent control (mortality, anti-feedant effect or growth inhibition) at 200 ppm [1] | percent control (mortality or growth inhibition) at 200 ppm [3] | percent control (mortality or growth inhibition) at 200 ppm [4] | percent control (mortality, anti-feedant effect or growth inhibition) at 200 ppm [5]

CC(NC(=O)c1cc(C(F)(F)F)cc(C(F)(F)C2CC2)c1)c1nccnc1-c1ncc(OCC(F)F)cn1 (centres unmarked) [P39, 3-[cyclopropyl(difluoro)methyl]-N-[1-[3-[5-(2,2-difluoroethoxy)pyrimidin-2-yl]pyrazin-2-yl]ethyl]-5-(trifluoromethyl)benzamide]
≥ 80%: percent control (mortality, anti-feedant effect or growth inhibition) at 200 ppm [1] | mortality at 500 ppm [2] | percent control (mortality or growth inhibition) at 200 ppm [4] | percent control (mortality, anti-feedant effect or growth inhibition) at 200 ppm [5]

COC1(c2cc(C(=O)NC(C)c3nccnc3-c3ccc(C#N)cn3)cc(C(F)(F)F)c2)CC1 (centres unmarked) [P46, N-[1-[3-(5-cyano-2-pyridyl)pyra-zin-2-yl]ethyl]-3-(1-methoxycyclopropyl)-5-(trifluoromethyl)benzamide]
≥ 80%: percent control (mortality, anti-feedant effect or growth inhibition) at 200 ppm [1] | percent control (mortality or growth inhibition) at 200 ppm [3] | percent control (mortality or growth inhibition) at 200 ppm [4] | percent control (mortality, anti-feedant effect or growth inhibition) at 200 ppm [5]

CC(NC(=O)c1cc(C(F)(F)F)nc(C2(C#N)CC2)c1)c1nccnc1-c1ccc(OC(F)F)cn1 (centres unmarked) [P1, 2-(1-cyanocyclopropyl)-N-[1-[3-[5-(difluoromethoxy)-2-pyridyl]pyrazin-2-yl]ethyl]-6-(trifluoromethyl)pyridine-4-carboxamide]
≥ 80%: percent control (mortality, anti-feedant effect or growth inhibition) at 200 ppm [1] | percent control (mortality or growth inhibition) at 200 ppm [3] | percent control (mortality or growth inhibition) at 200 ppm [4] | percent control (mortality, anti-feedant effect or growth inhibition) at 200 ppm [5]

CC(NC(=O)c1cc(C2CC2)cc(C(F)(F)F)c1)c1nccnc1-c1ccc(OCC(F)F)cn1 (centres unmarked) [P26, 3-cyclopropyl-N-[1-[3-[5-(2,2-difluoroethoxy)-2-pyridyl]pyrazin-2-yl]ethyl]-5-(trifluoromethyl)benzamide]
≥ 80%: percent control (mortality, anti-feedant effect or growth inhibition) at 200 ppm [1] | mortality at 500 ppm [2] | percent control (mortality or growth inhibition) at 200 ppm [4] | percent control (mortality, anti-feedant effect or growth inhibition) at 200 ppm [5]

CC(NC(=O)c1cc(C(F)(F)F)nc(C2(C#N)CC2)c1)c1nccnc1-c1ccc(OCC(F)(F)F)cn1 (centres unmarked) [P23, 2-(1-cyanocyclopropyl)-N-[1-[3-[5-(2,2,2-trifluoroethoxy)-2-pyridyl]pyrazin-2-yl]ethyl]-6-(trifluoromethyl)pyridine-4-carboxamide]
≥ 80%: percent control (mortality, anti-feedant effect or growth inhibition) at 200 ppm [1] | mortality at 500 ppm [2] | percent control (mortality or growth inhibition) at 200 ppm [3] | percent control (mortality or growth inhibition) at 200 ppm [4] | percent control (mortality, anti-feedant effect or growth inhibition) at 200 ppm [5]

CC(NC(=O)c1cc(C(F)(F)F)cc(C(C)(C)C#N)c1)c1nccnc1-c1ncc(OC(F)F)cn1 (centres unmarked) [P8, 3-(1-cyano-1-methyl-ethyl)-N-[1-[3-[5-(difluoromethoxy)pyrimidin-2-yl]pyrazin-2-yl]ethyl]-5-(trifluoromethyl)benzamide]
≥ 80%: percent control (mortality, anti-feedant effect or growth inhibition) at 200 ppm [1] | percent control (mortality or growth inhibition) at 200 ppm [3] | percent control (mortality or growth inhibition) at 200 ppm [4] | percent control (mortality, anti-feedant effect or growth inhibition) at 200 ppm [5]
